Consider 5 molecules from ChEMBL document CHEMBL1158234, “Halistanol disulfate B, a novel sulfated sterol from the sponge Pachastrella sp.: inhibitor of endothelin converting enzyme” (J Nat Prod, 1996).

One assay deals with COS. The assay can be described thus: (§1) Inhibition of recombinant ECE expressed in african green monkey COS cells assessed as endothelin formation by EIA assay. In kind it is cell-based.
A short description of assay [1]: as §1. In kind it is cell-based.

Activity calls are given as the source filed them. No cut-off for these calls is given here.

`C[C@H](CC[C@H](C)C(C)(C)C)[C@H]1CC[C@H]2[C@@H]3C[C@H](OS(=O)(=O)O)[C@H]4C[C@H](OS(=O)(=O)O)[C@@H](OS(=O)(=O)O)C[C@]4(C)[C@H]3CC[C@]12C`: in the assay with COS, the outcome was Active.
Same read-out and setting: the result for `C=CCCC[C@@H](C)[C@H]1CC[C@H]2[C@@H]3CC[C@H]4C[C@H](O)[C@@H](O)C[C@]4(C)[C@H]3CC[C@]12C` reads “inactive”; that for `O=C(NCCSSCCNC(=O)/C(Cc1cccc(OS(=O)(=O)O)c1Br)=N/O)/C(Cc1cc(Br)c(O)c(-c2ccc(C/C(=N\O)C(=O)NCCSSCCNC(=O)/C(Cc3ccc(OS(=O)(=O)O)c(Br)c3)=N/O)c(Br)c2O)c1)=N/O`, “Active”.
Still for that read-out and setting: then `O=C(NCCSSCCNC(=O)/C(Cc1ccc(Br)c(OS(=O)(=O)O)c1)=N/O)/C(Cc1ccc(OS(=O)(=O)O)c(Br)c1)=N/O`, with “Active”.
As for `C=CCCC[C@@H](C)[C@H]1CC[C@H]2[C@@H]3CC[C@H]4C[C@H](OS(=O)(=O)O)[C@@H](OS(=O)(=O)O)C[C@]4(C)[C@H]3CC[C@]12C` [HALISTANOL DISULFATE B], the IC50 in assay [1] amounted to 2.1 µM.
